According to patent publication US20250171438A1 (Agios Pharmaceuticals, Inc., priority 2022, published 2025):

Biological target: T1, human PAH with the R408W mutation (Homo sapiens, UniProt P00439, R408W)
T1 construct: expressed in transfected cells
T1 sequence (P00439 1-452 R408W): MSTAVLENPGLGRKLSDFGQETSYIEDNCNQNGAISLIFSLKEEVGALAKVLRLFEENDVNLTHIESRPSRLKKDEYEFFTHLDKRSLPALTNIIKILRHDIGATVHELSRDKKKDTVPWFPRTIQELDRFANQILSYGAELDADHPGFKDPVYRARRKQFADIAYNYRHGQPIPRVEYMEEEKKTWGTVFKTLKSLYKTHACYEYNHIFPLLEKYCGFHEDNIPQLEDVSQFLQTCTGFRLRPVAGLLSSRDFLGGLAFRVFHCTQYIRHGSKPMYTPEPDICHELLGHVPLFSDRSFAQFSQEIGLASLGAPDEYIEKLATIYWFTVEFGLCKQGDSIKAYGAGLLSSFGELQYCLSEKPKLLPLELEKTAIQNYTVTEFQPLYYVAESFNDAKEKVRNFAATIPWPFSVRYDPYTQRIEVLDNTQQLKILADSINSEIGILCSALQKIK
Test: Cell Based Phenylalanine Flux Assay
Conditions: A375 cells expressing human R408W PAH; 24 hrs compound incubation; 13C-Tyrosine by LC-MS; average where tested multiple times; read-out: AC50

Row | AC50 [µM] | SMILES
1 | 1 to 5 | O=C(c1ccnn1C(F)(F)F)N1CCc2[nH]cnc2[C@@H]1c1nc2c(F)cccc2s1 [Example 2100, (R)-(4-(4-fluorobenzo[d]thiazol-2-yl)-6,7-dihydro-1H-imidazo[4,5-c]pyridin-5(4H)-yl)(1-(trifluoromethyl)-1H-pyrazol-5-yl)methanone]
2 | 0.5 to 1 | Cn1ncnc1C(=O)N1CCc2[nH]cnc2[C@H]1c1nc2c(C(F)(F)F)cccc2s1 [Example 2101, (S)-(1-methyl-1H-1,2,4-triazol-5-yl)(4-(4-(trifluoromethyl)benzo[d]thiazol-2-yl)-6,7-dihydro-1H-imidazo[4,5-c]pyridin-5(4H)-yl)methanone]
3 | 1 to 5 | Cn1ncnc1C(=O)N1CCc2[nH]cnc2[C@@H]1c1nc2c(C(F)(F)F)cccc2s1 [Example 2102, (R)-(1-methyl-1H-1,2,4-triazol-5-yl)(4-(4-(trifluoromethyl)benzo[d]thiazol-2-yl)-6,7-dihydro-1H-imidazo[4,5-c]pyridin-5(4H)-yl)methanone]
4 | < 0.5 | CC(C)(O)c1nc(C(F)F)c(C(=O)N2CCc3[nH]cnc3[C@H]2c2nc3c(C(F)(F)F)cccc3s2)o1 [Example 2103, (S)-(4-(difluoromethyl)-2-(2-hydroxypropan-2-yl)oxazol-5-yl)(4-(4-(trifluoromethyl)benzo[d]thiazol-2-yl)-6,7-dihydro-1H-imidazo[4,5-c]pyridin-5(4H)-yl)methanone]
5 | 0.5 to 1 | CC(C)(O)c1nc(C(F)F)c(C(=O)N2CCc3[nH]cnc3[C@@H]2c2nc3c(C(F)(F)F)cccc3s2)o1 [Example 2104, (R)-(4-(difluoromethyl)-2-(2-hydroxypropan-2-yl)oxazol-5-yl)(4-(4-(trifluoromethyl)benzo[d]thiazol-2-yl)-6,7-dihydro-1H-imidazo[4,5-c]pyridin-5(4H)-yl)methanone]
6 | < 0.5 | CC(C)(O)c1nc(C(F)F)c(C(=O)N2CCc3[nH]cnc3[C@H]2c2nc3ccccc3s2)s1 [Example 2105]
7 | < 0.5 | CC(C)(O)c1nc(C(F)F)c(C(=O)N2CCc3[nH]cnc3[C@@H]2c2nc3ccccc3s2)s1 [Example 2106, (R)-(4-(benzo[d]thiazol-2-yl)-6,7-dihydro-1H-imidazo[4,5-c]pyridin-5(4H)-yl)(4-(difluoromethyl)-2-(2-hydroxypropan-2-yl)thiazol-5-yl)methanone]
8 | < 0.5 | CC(C)(O)c1nc(Br)c(C(=O)N2CCc3[nH]cnc3[C@H]2c2nc3ccccc3s2)s1 [Example 2107]
9 | 1 to 5 | CC(C)(O)c1nc(Br)c(C(=O)N2CCc3[nH]cnc3[C@@H]2c2nc3ccccc3s2)s1 [Example 2108, (R)-(4-(benzo[d]thiazol-2-yl)-6,7-dihydro-1H-imidazo[4,5-c]pyridin-5(4H)-yl)(4-bromo-2-(2-hydroxypropan-2-yl)thiazol-5-yl)methanone]
10 | < 0.5 | C[C@@H](O)c1nc(C(F)F)c(C(=O)N2CCc3[nH]cnc3[C@H]2c2nc3c(C(F)(F)F)cccc3s2)o1 [Example 2109, (4-(difluoromethyl)-2-((R)-1-hydroxyethyl)oxazol-5-yl) ((S)-4-(4-(trifluoromethyl)benzo[d]thiazol-2-yl)-6,7-dihydro-1H-imidazo[4,5-c]pyridin-5(4H)-yl)methanone]
11 | 1 to 5 | C[C@@H](O)c1nc(C(F)F)c(C(=O)N2CCc3[nH]cnc3[C@@H]2c2nc3c(C(F)(F)F)cccc3s2)o1 [Example 2110, (4-(difluoromethyl)-2-((R)-1-hydroxyethyl)oxazol-5-yl)((R)-4-(4-(trifluoromethyl)benzo[d]thiazol-2-yl)-6,7-dihydro-1H-imidazo[4,5-c]pyridin-5(4H)-yl)methanone]
12 | 0.5 to 1 | Cn1nccc1C(=O)N1CCc2[nH]cnc2[C@H]1c1nc2c(C(F)(F)F)cccc2s1 [Example 2111, (S)-(1-methyl-1H-pyrazol-5-yl)(4-(4-(trifluoromethyl)benzo[d]thiazol-2-yl)-6,7-dihydro-1H-imidazo[4,5-c]pyridin-5(4H)-yl)methanone]
13 | 1 to 5 | Cn1nccc1C(=O)N1CCc2[nH]cnc2[C@@H]1c1nc2c(C(F)(F)F)cccc2s1 [Example 2112, (R)-(1-methyl-1H-pyrazol-5-yl)(4-(4-(trifluoromethyl)benzo[d]thiazol-2-yl)-6,7-dihydro-1H-imidazo[4,5-c]pyridin-5(4H)-yl)methanone]
14 | < 0.5 | C[C@H](O)c1nc(C(F)F)c(C(=O)N2CCc3[nH]cnc3[C@H]2c2nc3c(C(F)(F)F)cccc3s2)o1 [Example 2113, (4-(difluoromethyl)-2-((S)-1-hydroxyethyl)oxazol-5-yl) ((S)-4-(4-(trifluoromethyl)benzo[d]thiazol-2-yl)-6,7-dihydro-1H-imidazo[4,5-c]pyridin-5(4H)-yl)methanone]
15 | 0.5 to 1 | C[C@H](O)c1nc(C(F)F)c(C(=O)N2CCc3[nH]cnc3[C@@H]2c2nc3c(C(F)(F)F)cccc3s2)o1 [Example 2114, (4-(difluoromethyl)-2-((S)-1-hydroxyethyl)oxazol-5-yl)((R)-4-(4-(trifluoromethyl)benzo[d]thiazol-2-yl)-6,7-dihydro-1H-imidazo[4,5-c]pyridin-5(4H)-yl)methanone]
16 | 0.5 to 1 | Cc1nc(C(C)(C)O)oc1C(=O)N1CCc2[nH]cnc2[C@H]1c1nc2c(C(F)(F)F)cccc2s1 [Example 2115, (S)-(2-(2-hydroxypropan-2-yl)-4-methyloxazol-5-yl)(4-(4-(trifluoromethyl)benzo[d]thiazol-2-yl)-6,7-dihydro-1H-imidazo[4,5-c]pyridin-5(4H)-yl)methanone]
17 | 1 to 5 | Cc1nc(C(C)(C)O)oc1C(=O)N1CCc2[nH]cnc2[C@@H]1c1nc2c(C(F)(F)F)cccc2s1 [Example 2116, (R)-(2-(2-hydroxypropan-2-yl)-4-methyloxazol-5-yl)(4-(4-(trifluoromethyl)benzo[d]thiazol-2-yl)-6,7-dihydro-1H-imidazo[4,5-c]pyridin-5(4H)-yl)methanone]
18 | < 0.5 | O=C(c1cnc(-c2ccc(F)cc2)o1)N1CCc2[nH]cnc2[C@H]1c1nc2ccccc2s1 [Example 2117]
19 | 1 to 5 | O=C(c1cnc(-c2ccc(F)cc2)o1)N1CCc2[nH]cnc2[C@@H]1c1nc2ccccc2s1 [Example 2118, (R)-(4-(benzo[d]thiazol-2-yl)-6,7-dihydro-1H-imidazo[4,5-c]pyridin-5(4H)-yl)(2-(4-fluorophenyl)oxazol-5-yl)methanone]
20 | 0.5 to 1 | O=C(c1oc(-c2ccccn2)nc1C1CC1)N1CCCc2[nH]cnc2[C@H]1c1nc2ccccc2s1 [Example 2119, (S)-(4-(benzo[d]thiazol-2-yl)-7,8-dihydroimidazo[4,5-c]azepin-5(1H,4H,6H)-yl)(4-cyclopropyl-2-(pyridin-2-yl)oxazol-5-yl)methanone]
21 | 1 to 5 | O=C(c1oc(-c2ccccn2)nc1C1CC1)N1CCCc2[nH]cnc2[C@@H]1c1nc2ccccc2s1 [Example 2120, (R)-(4-(benzo[d]thiazol-2-yl)-7,8-dihydroimidazo[4,5-c]azepin-5(1H,4H,6H)-yl)(4-cyclopropyl-2-(pyridin-2-yl)oxazol-5-yl)methanone]
22 | 0.5 to 1 | O=C(c1oc(-c2ccccn2)nc1C(F)(F)F)N1CCCc2[nH]cnc2[C@H]1c1nc2ccccc2s1 [Example 2121, (S)-(4-(benzo[d]thiazol-2-yl)-7,8-dihydroimidazo[4,5-c]azepin-5(1H,4H,6H)-yl)(2-(pyridin-2-yl)-4-(trifluoromethyl)oxazol-5-yl)methanone]
23 | 1 to 5 | O=C(c1oc(-c2ccccn2)nc1C(F)(F)F)N1CCCc2[nH]cnc2[C@@H]1c1nc2ccccc2s1 [Example 2122, (R)-(4-(benzo[d]thiazol-2-yl)-7,8-dihydroimidazo[4,5-c]azepin-5(1H,4H,6H)-yl)(2-(pyridin-2-yl)-4-(trifluoromethyl)oxazol-5-yl)methanone]
24 | 1 to 5 | CC(C)(O)c1nc(C(F)(F)F)c(C(=O)N2CCCc3[nH]cnc3[C@H]2c2nc3ccccc3s2)o1 [Example 2123, (S)-(4-(benzo[d]thiazol-2-yl)-7,8-dihydroimidazo[4,5-c]azepin-5(1H,4H,6H)-yl)(2-(2-hydroxypropan-2-yl)-4-(trifluoromethyl)oxazol-5-yl)methanone]
25 | 1 to 5 | CC(C)(O)c1nc(C(F)(F)F)c(C(=O)N2CCCc3[nH]cnc3[C@@H]2c2nc3ccccc3s2)o1 [Example 2124, (R)-(4-(benzo[d]thiazol-2-yl)-7,8-dihydroimidazo[4,5-c]azepin-5(1H,4H,6H)-yl)(2-(2-hydroxypropan-2-yl)-4-(trifluoromethyl)oxazol-5-yl)methanone]
26 | 1 to 5 | O=C(c1oc(NC2CC2)nc1C(F)(F)F)N1CCCc2[nH]cnc2[C@H]1c1nc2ccccc2s1 [Example 2127, (S)-(4-(benzo[d]thiazol-2-yl)-7,8-dihydroimidazo[4,5-c]azepin-5(1H,4H,6H)-yl)(2-(cyclopropylamino)-4-(trifluoromethyl)oxazol-5-yl)methanone]
27 | 1 to 5 | O=C(c1oc(NC2CC2)nc1C(F)(F)F)N1CCCc2[nH]cnc2[C@@H]1c1nc2ccccc2s1 [Example 2128, (R)-(4-(benzo[d]thiazol-2-yl)-7,8-dihydroimidazo[4,5-c]azepin-5(1H,4H,6H)-yl)(2-(cyclopropylamino)-4-(trifluoromethyl)oxazol-5-yl)methanone]
28 | 1 to 5 | Cc1ncoc1C(=O)N1CCCc2[nH]cnc2[C@H]1c1nc2ccccc2s1 [Example 2129, (S)-(4-(benzo[d]thiazol-2-yl)-7,8-dihydroimidazo[4,5-c]azepin-5(1H,4H,6H)-yl)(4-methyloxazol-5-yl)methanone]
